Assay results: PubChem BioAssay AID248 (DTP/NCI, 2004)
Values joined by “and” are separate entries in the source; they are usually repeats but may differ in a detail not shown here. Identical values can stand only once. Toxic doses and inconclusive results are not listed.

System: L1210 leukemia ip in BDF1 mice, survival T/C
Assay: NCI In Vivo Anticancer Drug Screen. Data for tumor model L1210 Leukemia (intraperitoneal) in B6D2F1 (BDF1) mice
Conditions: endpoint: mean survival time, higher = longer survival
In short: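 Mice bearing the transplanted tumor received compound or vehicle. Survival of the treated group was divided by that of the vehicle-treated control group to give the ratio.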

[1] = dose: 75.0 mg/kg/injection, schedule: Q01DX001 (ip), vehicle: saline
[2] = dose: 150.0 mg/kg/injection, schedule: Q01DX001 (ip), vehicle: saline
[3] = dose: 100.0 mg/kg/injection, schedule: Q04DX002 (ip), vehicle: Klucel (hydroxypropylcellulose) (HPC)
[4] = dose: 200.0 mg/kg/injection, schedule: Q04DX002 (ip), vehicle: Klucel (hydroxypropylcellulose) (HPC)
[5] = dose: 400.0 mg/kg/injection, schedule: Q04DX002 (ip), vehicle: Klucel (hydroxypropylcellulose) (HPC)
[6] = dose: 100.0 mg/kg/injection, schedule: Q01DX001 (ip), vehicle: carboxymethylcellulose (CMC)
[7] = dose: 200.0 mg/kg/injection, schedule: Q01DX001 (ip), vehicle: carboxymethylcellulose (CMC)
[8] = dose: 400.0 mg/kg/injection, schedule: Q01DX001 (ip), vehicle: carboxymethylcellulose (CMC)
[9] = dose: 100.0 mg/kg/injection, schedule: Q01DX001 (ip), vehicle: other
[10] = dose: 200.0 mg/kg/injection, schedule: Q01DX001 (ip), vehicle: other

SMILES: Cc1ccc2nc(N=C(N)N)[nH]c2c1
- T/C [1]: 93 % of control
- T/C [2]: 94 % of control

SMILES: CCN(CC)Cc1ccccc1COC(=O)c1ccc(Cl)cc1
- T/C [3]: 96 % of control
- T/C [4]: 101 % of control
- T/C [5]: 88 % of control

SMILES: Cc1ccnc(NC(=O)Nc2ccc(C)cc2[N+](=O)[O-])c1
- T/C [3]: 99 % of control
- T/C [4]: 105 % of control
- T/C [5]: 115 % of control

SMILES: C/C=C\C1OC1(C)c1cc(=O)c2c(C)cc3c(c2o1)C(=O)c1c(O)c(C2CC(C)(N(C)C)C(OC(C)=O)C(C)O2)cc(C2CC(N(C)C)C(O)C(C)O2)c1C3=O (stereo unspecified)
- T/C (dose: 0.35 mg/kg/injection, schedule: Q01DX009 (ip), vehicle: saline with Tween-80): 103 % of control
- T/C (dose: 0.7 mg/kg/injection, schedule: Q01DX009 (ip), vehicle: saline with Tween-80): 102 % of control
- T/C (dose: 1.4 mg/kg/injection, schedule: Q01DX009 (ip), vehicle: saline with Tween-80): 96 % of control
- T/C (dose: 2.8 mg/kg/injection, schedule: Q01DX009 (ip), vehicle: saline with Tween-80): 88 % of control

SMILES: C#CC(OC(=O)NC1CCCCC1)(c1ccccc1)c1ccccc1
- T/C (dose: 3.0 mg/kg/injection, schedule: Q01DX009 (ip), vehicle: carboxymethylcellulose (CMC)): 101 % of control
- T/C (dose: 6.0 mg/kg/injection, schedule: Q01DX009 (ip), vehicle: carboxymethylcellulose (CMC)): 100 % of control
- T/C (dose: 6.25 mg/kg/injection, schedule: Q01DX009 (ip), vehicle: saline with Tween-80): 106 % of control
- T/C (dose: 12.0 mg/kg/injection, schedule: Q01DX009 (ip), vehicle: carboxymethylcellulose (CMC)): 110 % of control
- T/C (dose: 12.5 mg/kg/injection, schedule: Q01DX009 (ip), vehicle: saline with Tween-80): 106 % of control
- T/C (dose: 12.5 mg/kg/injection, schedule: Q01DX009 (ip), vehicle: saline): 106 % of control
- T/C (dose: 25.0 mg/kg/injection, schedule: Q01DX009 (ip), vehicle: carboxymethylcellulose (CMC)): 116 % of control
- T/C (dose: 25.0 mg/kg/injection, schedule: Q01DX009 (ip), vehicle: saline): 114 % of control
- T/C (dose: 50.0 mg/kg/injection, schedule: Q01DX009 (ip), vehicle: saline): 157 % of control
- T/C (dose: 88.0 mg/kg/injection, schedule: Q04DX003 (ip), vehicle: saline sonified): 107 % of control
- T/C [6]: 97 % of control
- T/C (dose: 100.0 mg/kg/injection, schedule: Q01DX009 (ip), vehicle: saline sonified): 96 % of control
- T/C (dose: 100.0 mg/kg/injection, schedule: Q01DX009 (ip), vehicle: saline): 97 % of control
- T/C (dose: 132.0 mg/kg/injection, schedule: Q04DX003 (ip), vehicle: saline sonified): 110 % of control
- T/C [7]: 104 % of control
- T/C (dose: 300.0 mg/kg/injection, schedule: Q04DX003 (ip), vehicle: saline sonified): 110 % of control
- T/C [8]: 116 % of control

SMILES: CO/N=C(/c1ccccc1)c1cccc[n+]1C
- T/C (dose: 18.8 mg/kg/injection, schedule: Q04DX003 (ip), vehicle: saline): 100 % of control
- T/C (dose: 37.5 mg/kg/injection, schedule: Q04DX003 (ip), vehicle: saline): 103 % of control

SMILES: Oc1ccccc1C=Nc1ccccc1N=Cc1ccccc1O
- T/C (dose: 100.0 mg/kg/injection, schedule: Q01DX001 (ip), vehicle: Klucel (hydroxypropylcellulose) (HPC)): 102 % of control
- T/C (dose: 200.0 mg/kg/injection, schedule: Q01DX001 (ip), vehicle: Klucel (hydroxypropylcellulose) (HPC)): 103 % of control
- T/C (dose: 400.0 mg/kg/injection, schedule: Q01DX001 (ip), vehicle: Klucel (hydroxypropylcellulose) (HPC)): 96 % of control

SMILES: COc1cccc2c1C(=O)c1c(O)c3c(c(O)c1C2=O)C[C@@](O)(C(C)=O)C[C@@H]3OC1CC(NC(=S)Nc2ccc(F)cc2)C(O)C(C)O1 (stereo partly specified)
- T/C (dose: 0.25 mg/kg/injection, schedule: Q04DX003 (ip), vehicle: other): 100 % of control
- T/C (dose: 0.5 mg/kg/injection, schedule: Q04DX003 (ip), vehicle: other): 98 % of control
- T/C (dose: 1.0 mg/kg/injection, schedule: Q04DX003 (ip), vehicle: other): 104 % of control
- T/C (dose: 2.0 mg/kg/injection, schedule: Q04DX003 (ip), vehicle: other): 100 % of control
- T/C (dose: 4.0 mg/kg/injection, schedule: Q04DX003 (ip), vehicle: other): 112 % of control
- T/C (dose: 6.0 mg/kg/injection, schedule: Q01DX009 (ip), vehicle: water): 111 % of control
- T/C (dose: 8.0 mg/kg/injection, schedule: Q04DX003 (ip), vehicle: other): 112 % of control
- T/C (dose: 12.0 mg/kg/injection, schedule: Q01DX009 (ip), vehicle: water): 114 % of control
- T/C (dose: 14.0 mg/kg/injection, schedule: Q04DX003 (ip), vehicle: water): 108 % of control
- T/C (dose: 16.0 mg/kg/injection, schedule: Q04DX003 (ip), vehicle: other): 109 % of control
- T/C (dose: 21.0 mg/kg/injection, schedule: Q04DX003 (ip), vehicle: water): 108 % of control
- T/C (dose: 23.0 mg/kg/injection, schedule: Q01DX009 (ip), vehicle: water): 108 % of control
- T/C (dose: 24.0 mg/kg/injection, schedule: Q01DX009 (ip), vehicle: water): 116 % of control
- T/C (dose: 39.0 mg/kg/injection, schedule: Q01DX009 (ip), vehicle: water): 109 % of control
- T/C (dose: 48.0 mg/kg/injection, schedule: Q01DX009 (ip), vehicle: water): 122 % of control
- T/C (dose: 50.0 mg/kg/injection, schedule: Q04DX003 (ip), vehicle: water): 120 % of control
- T/C (dose: 65.0 mg/kg/injection, schedule: Q01DX009 (ip), vehicle: water): 109 % of control
- T/C (dose: 108.0 mg/kg/injection, schedule: Q01DX009 (ip), vehicle: water): 119 % of control
- T/C (dose: 180.0 mg/kg/injection, schedule: Q01DX009 (ip), vehicle: water): 104 % of control

SMILES: NNc1ncnc2nc[nH]c12
- T/C (dose: 12.0 mg/kg/injection, schedule: Q01DX015 (ip), vehicle: saline): 93 % of control
- T/C (dose: 25.0 mg/kg/injection, schedule: Q01DX015 (ip), vehicle: saline): 101 % of control
- T/C (dose: 50.0 mg/kg/injection, schedule: Q01DX015 (ip), vehicle: saline): 104 % of control
- T/C [1]: 105 % of control
- T/C (dose: 100.0 mg/kg/injection, schedule: Q01DX015 (ip), vehicle: saline): 116 % of control
- T/C [2]: 102 % of control
- T/C (dose: 300.0 mg/kg/injection, schedule: Q01DX001 (ip), vehicle: saline): 114 % of control

SMILES: O=C(O)c1ccccc1N=Cc1ccccc1O.[Co]
- T/C [9]: 102 % of control
- T/C [10]: 112 % of control

SMILES: Nc1cc2c(cc1Cl)-c1ccccc1/C2=N\O
- T/C [6]: 110 % of control
- T/C [7]: 98 % of control
- T/C [8]: 102 % of control

SMILES: CC(O)CN(c1ccccc1)c1ccccc1 (stereo unspecified)
- T/C [6]: 101 % of control
- T/C [7]: 92 % of control
- T/C [8]: 95 % of control

SMILES: O=C(NC(=S)Nc1ccc(Cl)cc1)c1ccccc1
- T/C (dose: 25.0 mg/kg/injection, schedule: Q01DX009 (ip), vehicle: Klucel (hydroxypropylcellulose) (HPC)): 95 % of control
- T/C (dose: 50.0 mg/kg/injection, schedule: Q01DX009 (ip), vehicle: Klucel (hydroxypropylcellulose) (HPC)): 93 % of control
- T/C (dose: 100.0 mg/kg/injection, schedule: Q01DX009 (ip), vehicle: Klucel (hydroxypropylcellulose) (HPC)): 93 % of control and 89 % of control

SMILES: Cn1c(N)c(N=Cc2ccncc2)c(=O)n(C)c1=O
- T/C (dose: 50.0 mg/kg/injection, schedule: Q01DX001 (ip), vehicle: other): 103 % of control
- T/C [9]: 92 % of control
- T/C [10]: 94 % of control
- T/C (dose: 400.0 mg/kg/injection, schedule: Q01DX001 (ip), vehicle: other): 97 % of control

SMILES: OC1c2ccccc2-c2ccc(N(Cc3ccccc3)Cc3ccccc3)cc21 (stereo unspecified)
- T/C (dose: 200.0 mg/kg/injection, schedule: Q04DX003 (ip), vehicle: saline with Tween-80): 87 % of control
